Where two headings read alike, the source gives them in different places.
How the values were obtained:
[1] = test system: TNFα; test: Cot Monocyte TNFα Cell Based Assay
[2] = biological target: Human Cot (Homo sapiens (Human), UniProt P41279); test: High Throughput Cot Biochemical Assay; conditions: Cot HTRF (TR-FRET) biochemical assay
[3] = Homo sapiens, Monocyte, read-out: EC50 TNF, LPS-stimulated human monocytes, TNFα
[4] = read-out: EC50 TNF, LPS-stimulated human monocytes, TNFα

Sequence of Human Cot (P41279 30-397): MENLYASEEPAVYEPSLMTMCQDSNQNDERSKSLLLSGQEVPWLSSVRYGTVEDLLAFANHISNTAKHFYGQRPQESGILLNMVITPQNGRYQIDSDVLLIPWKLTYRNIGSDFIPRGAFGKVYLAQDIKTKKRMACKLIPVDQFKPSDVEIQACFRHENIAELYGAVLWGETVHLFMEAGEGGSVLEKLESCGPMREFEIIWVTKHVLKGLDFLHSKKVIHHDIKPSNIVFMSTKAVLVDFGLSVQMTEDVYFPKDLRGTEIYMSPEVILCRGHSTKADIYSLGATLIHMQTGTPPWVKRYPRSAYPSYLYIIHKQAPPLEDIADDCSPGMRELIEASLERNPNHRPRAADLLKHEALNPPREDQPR

| Structure (SMILES) | EC50 [1, 3] | IC50 ([2]; IC50 HTRF) | EC50 [1, 4] | IC50 ([2]; read-out: IC50 HTRF) |
| --- | --- | --- | --- | --- |
| CCc1nc(F)ccc1[C@H](Nc1cc(Cl)c2ncc(C#N)c(NCC(C)(C)C)c2c1)c1cn(C2(C(F)F)CC2)nn1 [Example 592, (S)-8-chloro-6-(((1-(1-(difluoromethyl)cyclo-propyl)-1H-1,2,3-triazol-4-yl)(2-ethyl-6-fluoropyridin-3-yl)methyl)amino)-4-(neopentylamino)quinoline-3-carbonitrile] | 78 nM | 5 nM |  |  |
| CCc1nc(F)ccc1[C@H](Nc1cc(Cl)c2ncc(C#N)c(NCC(C)(C)C)c2c1)c1cn(C2(C(F)(F)F)CC2)nn1 [Example 593, (S)-8-chloro-6-(((2-ethyl-6-fluoropyridin-3-yl)(1-(1-(trifluoromethyl)cyclopropyl)-1H-1,2,3-triazol-4-yl)methyl)amino)-4-(neopentylamino)quinoline-3-carbonitrile] | 298 nM | 8 nM |  |  |
| CC(C)(C)CNc1c(C#N)cnc2c(Cl)cc(N[C@H](c3cn(C4(CF)CC4)nn3)c3cccc4ccncc34)cc12 [Example 594, (S)-8-chloro-6-(((1-(1-(fluoromethyl)cyclopropyl)-1H-1,2,3-triazol-4-yl)(isoquinolin-8-yl)methyl)amino)-4-(neopentylamino)quinoline-3-carbonitrile] | 33 nM | 2 nM |  |  |
| COc1cc(N[C@H](c2cn(C3(C(F)(F)F)CC3)nn2)c2ccc(F)nc2C)cc2c(NCC(C)(C)C)c(C#N)cnc12 [Example 595, (S)-6-(((6-fluoro-2-methylpyridin-3-yl)(1-(1-(trifluoromethyl)cyclopropyl)-1H-1,2,3-triazol-4-yl)methyl)amino)-8-methoxy-4-(neopentylamino)quinoline-3-carbonitrile] | 1000 nM | 209 nM |  |  |
| CCc1ncccc1[C@H](Nc1cc(Cl)c2ncc(C#N)c(NCC(C)(C)C)c2c1)c1cn(C2(C(F)(F)F)CC2)nn1 [Example 600, (S)-8-chloro-6-(((2-ethylpyridin-3-yl)(1-(1-(trifluoromethyl)cyclopropyl)-1H-1,2,3-triazol-4-yl)methyl)amino)-4-(neopentylamino)quinoline-3-carbonitrile] | 113 nM | 5 nM |  |  |
| Cc1nc(F)ccc1[C@H](Nc1cc(C#N)c2ncc(C#N)c(NCC(C)(C)C)c2c1)c1cn(Cc2c(F)cccc2F)nn1 [Example 601, (S)-6-(((1-(2,6-difluorobenzyl)-1H-1,2,3-triazol-4-yl)(6-fluoro-2-methylpyridin-3-yl)methyl)amino)-4-(neopentylamino)quinoline-3,8-dicarbonitrile] | 32 nM | 4 nM |  |  |
| Cn1ncc2cccc([C@H](Nc3cc(C#N)c4ncc(C#N)c(NCC(C)(C)C)c4c3)c3cn(C4(C(F)F)CC4)nn3)c21 [Example 605] |  |  | 30 nM | 3 nM |
| CCc1ncccc1[C@H](Nc1cc(C#N)c2ncc(C#N)c(NCC(C)(C)C)c2c1)c1cn(C2(C(F)F)CC2)nn1 [Example 606, (S)-6-(((1-{1-(difluoromethyl)-cyclopropyl)-1H-1,2,3-triazol-4-yl)(2-ethylpyridin-3-yl)methyl)amino)-4-(neopentylamino)quinoline-3,8-dicarbonitrile] | 27 nM | 2 nM |  |  |
| Cc1nc(F)ccc1[C@@H](Nc1cc(Cl)c2ncc(C#N)c(NC3[C@H]4CCC[C@H]34)c2c1)c1cn(C2(C(F)(F)F)CC2)nn1 (stereo partly drawn) [Example 607, 4-(((lR,5S)-bicyclo[3.1.0]hexan-6-yl)amino)-8-chloro-6-(((S)-(6-fluoro-2-methylpyridin-3-yl)(1-(1-(trifluoromethyl)cyclopropyl)-1H-1,2,3-triazol-4-yl)methyl)amino)quinoline-3-carbonitrile] |  |  | 225 nM | 21 nM |
| Cc1nc(F)ccc1[C@H](Nc1cc(C#N)c2ncc(C#N)c(NCC(C)(C)C)c2c1)c1cn(C2(CO)CC2)nn1 [Example 610, (S)-6-(((6-fluoro-2-methylpyridin-3-yl)(1-(1-(hydroxymethyl)cyclopropyl)-1H-1,2,3-triazol-4-yl)methyl)amino)-4-(neopentylamino)quinoline-3,8-dicarbonitrile] | 199 nM | 2 nM |  |  |
| Cc1nc(F)ccc1[C@H](Nc1cc(C#N)c2ncc(C#N)c(NCC(C)(C)c3ccccc3)c2c1)c1cn(C2(C(F)(F)F)CC2)nn1 [Example 614, (S)-6-(((6-fluoro-2-methylpyridin-3-yl)(1-(1-(trifluoromethyl)cyclopropyl)-1H-1,2,3-triazol-4-yl)methyl)amino)-4-((2-methyl-2-phenylpropyl)amino)quinoline-3,8-dicarbonitrile] | 154 nM | 9 nM |  |  |
| Cc1scnc1[C@H](Nc1cc(Cl)c2ncc(C#N)c(NCC(C)(C)C)c2c1)c1cn(C2(C(F)F)CC2)nn1 [Example 620, (S)-8-chloro-6-(((1-(1-(difluoromethyl)cyclo-propyl)-1H-1,2,3-triazol-4-yl)(5-methylthiazol-4-yl)methyl)amino)-4-(neopentylamino)quinoline-3-carbonitrile] | 1000 nM | 102 nM |  |  |
| Cc1nc(F)ccc1[C@H](Nc1cc(C#N)c2ncc(C#N)c(NCC(C)(C)C)c2c1)c1cn(C2(C3CC3)CC2)nn1 [Example 621, (S)-6-(((1-([1,1′-bi(cyclopropan)]-1-yl)-1H-1,2,3-triazol-4-yl)(6-fluoro-2-methylpyridin-3-yl)methyl)amino)-4-(neopentylamino)quinoline-3,8-dicarbonitrile] | 12 nM | 1 nM |  |  |

The remaining lines, values ahead:

| EC50 [1, 3] | IC50 ([2]; IC50 HTRF) | EC50 [1, 4] | IC50 ([2]; read-out: IC50 HTRF) | Structure (SMILES) |
| --- | --- | --- | --- | --- |
| 826 nM | 79 nM |  |  | COc1cc(N[C@H](c2cn(C3(C#N)CC3)nn2)c2ccc(F)nc2C)cc2c(NCC(C)(C)C)c(C#N)cnc12 [Example 596, (S)-6-(((1-(1-cyanocyclopropyl)-1H-1,2,3-triazol-4-yl)(6-fluoro-2-methylpyridin-3-yl)methyl)amino)-8-methoxy-4-(neopentylamino)quinoline-3-carbonitrile] |
| 150 nM | 3 nM |  |  | CCc1nc(F)ccc1[C@H](Nc1cc(C#N)c2ncc(C#N)c(NCC(C)(C)C)c2c1)c1cn(C2(C(F)F)CC2)nn1 [Example 597, (S)-6-(((1-(1-(difluoromethyl)cyclopropyl)-1H-1,2,3-triazol-4-yl)(2-ethyl-6-fluoropyridin-3-yl)methyl)amino)-4-(neopentylamino)quinoline-3,8-dicarbonitrile] |
| 198 nM | 5 nM |  |  | CCc1nc(F)ccc1[C@H](Nc1cc(C#N)c2ncc(C#N)c(NCC(C)(C)C)c2c1)c1cn(C2(C(F)(F)F)CC2)nn1 [Example 598, (S)-6-(((2-ethyl-6-fluoropyridin-3-yl)(1-(1-(trifluoromethyl)cyclopropyl)-1H-1,2,3-triazol-4-yl)methyl)amino)-4-(neopentylamino)-quinoline-3,8-dicarbonitrile] |
| 69 nM | 3 nM |  |  | CCc1ncccc1[C@H](Nc1cc(C#N)c2ncc(C#N)c(NCC(C)(C)C)c2c1)c1cn(C2(C(F)(F)F)CC2)nn1 [Example 602, (S)-6-(((2-ethylpyridin-3-yl)(1-(1-(trifluoro-methyl)cyclopropyl)-1H-1,2,3-triazol-4-yl)methyl)amino)-4-(neopentylamino)-quinoline-3,8-dicarbonitrile] |
| 107 nM | 7 nM |  |  | Cn1ncc2cccc([C@H](Nc3cc(Cl)c4ncc(C#N)c(NCC(C)(C)C)c4c3)c3cn(C4(C(F)F)CC4)nn3)c21 [Example 603, (S)-8-chloro-6-(((1-(1-(difluoromethyl)cyclo-propyl)-1H-1,2,3-triazol-4-yl)(1-methyl-1H-indazol-7-yl)methyl)amino)-4-(neopentyl-amino)quinoline-3-carbonitrile] |
|  |  | 314 nM | 42 nM | Cc1nc(F)ccc1[C@H](Nc1cc(Cl)c2ncc(C#N)c(N[C@H]3[C@@H]4COC[C@@H]43)c2c1)c1cn(C2(C(F)(F)F)CC2)nn1 [Example 608, 4-(((lR,5S,6r)-3-oxabicyclo[3.1.0]hexan-6-yl)amino)-8-chloro-6-(((S)-(6-fluoro-2-methylpyridin-3-yl)(1-(1-(trifluoromethyl)cyclo-propyl)-1H-1,2,3-triazol-4-yl)methyl)amino)-quinoline-3-carbonitrile] |
| 46 nM | 2 nM |  |  | Cn1ncc2c([C@H](Nc3cc(C#N)c4ncc(C#N)c(NCC(C)(C)C)c4c3)c3cn(C4CC4)nn3)cccc21 [Example 609, (S)-6-(((1-cyclopropyl-1H-1,2,3-triazol-4-yl)(1-methyl-1H-indazol-4-yl)methyl)amino)-4-(neopentylamino)quinoline-3,8-dicarbonitrile] |
| 229 nM | 20 nM |  |  | Cc1nc(F)ccc1[C@H](Nc1cc(Cl)c2ncc(C#N)c(N[C@@H](c3ccccc3)C3CC3)c2c1)c1cn(C2(C(F)(F)F)CC2)nn1 [Example 611, 8-chloro-4-(((R)-cyclopropyl(phenyl)methyl)-amino)-6-(((S)-(6-fluoro-2-methylpyridin-3-yl)(1-(1-(trifluoromethyl)cyclopropyl)-1H-1,2,3-triazol-4-yl)methyl)amino)quinoline-3-carbonitrile] |
| 171 nM | 11 nM |  |  | Cc1nc(F)ccc1[C@H](Nc1cc(Cl)c2ncc(C#N)c(NCC(C)(C)c3ccccc3)c2c1)c1cn(C2(C(F)(F)F)CC2)nn1 [Example 612, (S)-8-chloro-6-(((6-fluoro-2-methylpyridin-3-yl)(1-(1-(trifluoromethyl)cyclopropyl)-1H-1,2,3-triazol-4-yl)methyl)amino)-4-((2-methyl-2-phenylpropyl)amino)quinoline-3-carbonitrile] |
| 189 nM | 7 nM |  |  | Cc1ncsc1[C@H](Nc1cc(Cl)c2ncc(C#N)c(NCC(C)(C)C)c2c1)c1cn(C2(C(F)F)CC2)nn1 [Example 619, (R)-8-chloro-6-(((1-(1-(difluoromethyl)-cyclopropyl)-1H-1,2,3-triazol-4-yl)(4-methylthiazol-5-yl)methyl)amino)-4-(neopentylamino)quinoline-3-carbonitrile] |
